From US6699463B2, “Photostable cationic organic sunscreen compounds with antioxidant properties and compositions obtained therefrom” (EM Industries, priority 2002, dated 2004)
In brackets after ≈: the same amount, converted by molar mass.

Legend:
[1] = DPPH test method (percent reducing activity, antioxidant activity); type: biochemical; details: for IC 50%: DPPH reducing activity; for Reductive activity at 30 μg/ml: DPPH, absorbance at 517 nm after 20 minutes
Description: A DPPH concentrate (2.5×) of 25 mg of 1,1-Diphenyl-2-Picyrl-Hydrazyl ACS#1898-66-4 (Sigma #D-9132, lot 99H3601) dissolved in 250 mL ethanol (USP), is prepared fresh on the measurement date. A DPPH working solution is then prepared by diluting 100 mL of this concentrate to a final volume of 250 mL (100 μM/mL). A blank 13×100 mm borosilicate glass screw top tube of ethanol (USP) is used to zero the spectrometer (Milton Roy, Spectronic 20+) at 517 nm and a control tube of DPPH working solution is measured under identical conditions, and taken as 0% activity. Aliquots of the 0.25% & 0.5% (RT & 45° C.) test solution are added to tubes followed by the rapid addition of 4 mL DPPH working solution then rapidly capped and mixed. After 20 minutes, the absorbance of each sample is read at 517 nm.
The percent reducing activity (%RA) is calculated using the following equation: [formula]
Where A(0) is the absorbance value of the DPPH working solution at 517 nm zeroed against an ethanol blank and A(20) is the absorbance at 517 nm, 20 minutes after combining the antioxidant with the DPPH working solution.
The concentration of antioxidant (mg/ml) in the final assay mixture is calculated based on the dilution of respective aliquots of each compound in the final assay volume and %RA tabulated and plotted as percent activity at each concentration in the dilution series.

[2] = UV absorption (λmax, εmax); type: physicochemical; details: for λmax: Example 3 in EtOH:water-70%:30%; for εmax: at λmax
Description: The mass was degassed for one hour at 90-95 deg. C. under vacuum. The yield obtained is about 85%. […] A 50% solution in water was prepared for ease of handling.
This material was prepared by following the procedure described in Example 3, except syringaldehyde was replaced with vanillin as a starting material. The product has a λmax at 334 nm (ε max 18050 cm^−1 mol^−1). A 50% solution in water was prepared for ease of handling.

[3] = Solubility in water / aqueous-ethanolic solution; type: physicochemical; details: for Solubility in water: water / aqueous solution
[4] = Chelating property: free coordination sites in Fe3+-antioxidant complex, UV spectrophotometric azide method; type: physicochemical
Description: (§1) Iron-catalyzed formation of a hydroxyl radical from a superoxide anion radical and hydrogen peroxide requires the availability of at least one iron coordination site that is either empty or occupied by a readily dissociable ligand, such as water. […] Martell et al, 1957). The results are recorded in Tables 1 and 2. [table]

[5] = Chelating property: free coordination sites in Cu2+-antioxidant complex, UV spectrophotometric azide method; type: physicochemical
Description: as §1

[6] = Comparative photostability of thin films under UV A and UV B irradiation; type: physicochemical; details: thin film, UV A (2 MED/h) and UV B (1 MED/h), 8 h, FIGS. 1 and 2
Description: The photostability of compounds of the present invention as well as existing commercial cationic sunscreens is tested according to the procedure described below:
Photostability: Comparative Photostability of Example 3, Incroquat® 283 and Escalol® HP610
Three products [Example 3 (1%), Incroquat 283 (1%) and HP610 (0.1%)] were tested for their photostability by dissolving separately in water or ethanol-water solution containing 0.1% Poly(vinylpyrrolidone-vinyl acetate) copolymer (PVP-VA S630 from ISP). Air drying on a glass plate for one hour gave a thin film, which were irradiated under UV A (2 MED/h) and UV B (1 MED/h) light separately over an 8 h period in a Q-UV Accelerated Weathering Tester. Photodegradation was calculated from the decrease in the maximum absorption of the respective products. The results are illustrated in FIGS. 1 and 2.

Molecule	IC 50% [1]	Reductive activity at 30 μg/ml [1]	λmax [2]	εmax [2]	maximal concentration in aqueous-ethanolic solution ([3]; aqueous-ethanolic solution (30:70%))	Solubility in water [3]	Iron chelation / water coordination of the complex [4]	Copper chelation / water coordination of the complex [5]	Photostability relative to commercial cationic sunscreens [6]
COc1cc(/C=C(/C(C)=O)C(=O)NCCCN(C)C)cc(OC)c1O [Example 1, N-(3-Dimethylaminopropyl)-alpha-acyl-3,5-dimethoxy-4-hydroxy Cinnamide]	79 µg/mL (≈ 225 µM)	23%							
Bis-N-[3(N,N-dimethylamino)propyl]-3-methoxy-4-hydroxybenzylidene Malonamide Bis Ethylsulfate [Example 4]	188 µg/mL	8%	334 nm	18050 cm⁻¹ mol⁻¹					
CCCCCCCCCCCC[N+](C)(C)CCCNC(=O)C(C#N)=Cc1cc(OC)c(O)c(OC)c1.CS(=O)(=O)[O-] [Example 2, N-(3-Dimethyl-3-dodecylaminopropyl)-alpha-cyano-3,5-dimethoxy-4-hydroxy Cinnamide Methane Sulphonate]	129 µg/mL	28%							
CCCCCCCCCCCC[N+](C)(C)CCCNC(=O)c1ccc(N(C)C)cc1.Cc1ccc(S(=O)(=O)[O-])cc1 [Escalol® HP 610]					0.25%	very poor solubility	do not have iron-or copper-chelating properties	do not have iron-or copper-chelating properties	
Bis-N-[3(N,N-dimethylamino)propyl]-3,5-dimethoxy-4-hydroxybenzylidene Malonamide Bis Ethylsulfate [Example 3]	118 µg/mL	22%	323 nm	10,500 cm^−1 mol^−1		highly soluble in water	absence of any water coordination	absence of any water coordination	much higher photostability
